# Results reported in US8741879B2, “Petroleum jelly-free unguent compositions comprising vitamin D compounds and optionally steroidal anti-inflammatory agents” (Galderma S.A., priority 2006, dated 2014).
# Legend:
# [1] = Stability of calcitriol 30 ppm solution in absolute ethanol with 0.02% BHT (HPLC assay against a reference substance); type: physicochemical; conditions: 30 ppm in absolute ethanol
# Description: b) Stability of Calcitriol in Ethanol: Calcitriol solution 30 ppm in qs 100% absolute ethanol in the presence of 0.02% BHT. Assay technique by HPLC against a reference substance. The starting time (T0) is considered to be 100%.
# [2] = Solubility of clobetasol propionate in solvents (HPLC); type: physicochemical
# Description: a) Solubility of Clobetasol Propionate:
"Calcitriol remaining (T0 = 100%) ([1]; +4° C., T1week) [%]","Calcitriol remaining (T0 = 100%) ([1]; +4° C., T2weeks) [%]","Calcitriol remaining (T0 = 100%) ([1]; +4° C., T3weeks) [%]","Calcitriol remaining (T0 = 100%) ([1]; +4° C., T4weeks) [%]","Calcitriol remaining (T0 = 100%) ([1]; +30° C., T2weeks) [%]","Calcitriol remaining (T0 = 100%) ([1]; +30° C., T4weeks) [%]","Calcitriol remaining (T0 = 100%) ([1]; −18° C., T1week) [%]","Calcitriol remaining (T0 = 100%) ([1]; −18° C., T2weeks) [%]","Calcitriol remaining (T0 = 100%) ([1]; −18° C., T3weeks) [%]","Calcitriol remaining (T0 = 100%) ([1]; −18° C., T4weeks) [%]",Solubility ([2]; in Ethanol 96) [mg/g],Solubility ([2]; in Propylene glycol) [mg/g],Solubility ([2]; in Transcutol) [mg/g],Compound
97.7,98.6,98.1,97.7,93.4,93.0,100.9,100.5,99.5,99.5,–,–,–,"C=C1/C(=C\C=C2/CCC[C@]3(C)[C@@H]([C@H](C)CCCC(C)(C)O)CC[C@@H]23)C[C@@H](O)C[C@@H]1O [Calcitriol, calcitriol]"
–,–,–,–,–,–,–,–,–,–,50.40,9.10,120.70,"CCC(=O)O[C@]1(C(=O)CCl)[C@@H](C)C[C@H]2[C@@H]3CCC4=CC(=O)C=C[C@]4(C)[C@@]3(F)[C@@H](O)C[C@@]21C [Clobetasol Propionate, clobetasol 17-propionate]"
